Reference: ChEMBL document CHEMBL4311978, “Transferrin conjugates of antitubercular drug isoniazid: Synthesis and in vitro efficacy” (Eur J Med Chem, 2019)
In brackets after ≈: the same amount, converted by molar mass. Activity calls are given as the source filed them. The rule behind the calls is not given here.

How the values were obtained:
[1] = system: Mycobacterium tuberculosis; experiment: Antitubercular activity against Mycobacterium tuberculosis H37Rv infected in human THP1 cells assessed as reduction in CFU incubated for 48 hrs; format: functional, organism-based
THP-1 = experiment: Cytotoxicity against human THP1 cells assessed as reduction in cell viability incubated for 48 hrs by MTT assay; format: cell-based; conditions: THP-1, 48 h
[2] = system: Mycobacterium tuberculosis; experiment: Antitubercular activity against Mycobacterium tuberculosis H37Rv assessed as reduction in bacterial cell viability incubated for 5 days by microplate alamar blue assay; format: functional; conditions: 120 h

NNC(=O)c1ccncc1 [ISONIAZID]
Activity [1]: Active | IC50 (THP-1): > 25 µg/mL | MIC90 [2]: 0.25 µg/mL (≈ 1.82 µM)
